Experiments:
[1] = target: T1, RIPK1 (Homo sapiens, UniProt Q13546); experiment: Cell-based necroptosis assay for RIPK1 activity (cell viability by CCK-8); conditions: HT-29 cells; Z-VAD-FMK 20 μM, human TNFα 10 ng/ml, SM-164 100 nM; 24 h; read-out: Cell-base RIPK1 activity: Necroptosis
T1 construct: endogenous in cells; host or cells: HT-29 (KCLB 30038)
T1 sequence (Q13546 1-671): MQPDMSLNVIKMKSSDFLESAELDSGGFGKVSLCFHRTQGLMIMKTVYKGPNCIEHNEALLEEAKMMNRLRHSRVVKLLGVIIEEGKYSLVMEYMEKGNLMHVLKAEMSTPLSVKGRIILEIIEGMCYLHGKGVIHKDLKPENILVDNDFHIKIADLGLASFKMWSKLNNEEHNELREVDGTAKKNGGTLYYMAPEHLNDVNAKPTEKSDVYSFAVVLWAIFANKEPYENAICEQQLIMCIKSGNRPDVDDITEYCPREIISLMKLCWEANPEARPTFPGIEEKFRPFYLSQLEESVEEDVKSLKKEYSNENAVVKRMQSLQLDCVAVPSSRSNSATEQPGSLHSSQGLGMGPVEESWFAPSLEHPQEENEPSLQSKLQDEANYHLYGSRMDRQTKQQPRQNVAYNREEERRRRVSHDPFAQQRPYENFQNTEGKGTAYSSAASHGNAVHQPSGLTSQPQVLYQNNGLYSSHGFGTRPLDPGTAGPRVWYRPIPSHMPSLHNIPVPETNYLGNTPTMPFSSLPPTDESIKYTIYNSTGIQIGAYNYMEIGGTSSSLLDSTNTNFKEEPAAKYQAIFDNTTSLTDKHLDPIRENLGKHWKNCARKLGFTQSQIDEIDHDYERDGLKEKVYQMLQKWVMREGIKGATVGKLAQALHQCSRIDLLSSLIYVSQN
Procedure: (§1) Human colon carcinoma cell HT-29 (KCLB 30038), BV2 mouse microglial cell (cell was a kind gift from Dr. Nak-Yun Sung, Senior researcher at Korea Prime Pharmacy CO., LTD.) and human microglial cell HMC3 (ATCC® CRL-3304™). HT-29 cell was grown in Roswell Park Memorial Institute (RPMI) 1640, BV2 cell was grown in Dulbecco's Modified Eagle's Medium (DMEM) and HMC3 cell was grown in Minimum Essential Media Eagle (MEM) supplemented with 10% fetal bovine serum and 1% mixture of penicillin and streptomycin (Gibco). Cells were maintained at 37° C. in a humidified 5% CO2 atmosphere.
To measure the activity of RIPK1 inhibitor in necroptotic cells, HT-29 cells were treated by control DMSO, human TNFα (Peprotech, Rocky Hill, USA), SM-164 (Biovision, California, USA) and a pan-caspase inhibitor Z-VAD-FMK (Invivogen, San Diego, USA). Cells were pretreated with Z-VAD-FMK 20 μM. After 30 min, human TNFα 10 ng/ml, SM-164 100 nM and RIPK1 Inhibitor (0.0001, 0.001, 0.01, 0.02, 0.05, 0.1, 1, 10 uM) were treated for 24 h. Cell viability was measured by Cell Counting Kit 8 (CCK-8) (Dong-in, Seoul, Korea).

[2] = target: T1, RIPK1; experiment: Immunoblotting of TNFα induced phospho-RIPK1 (ser 166) levels; assay type: cell-based; conditions: HMC3 cells; Z-VAD-FMK, human TNFα 20 ng/ml, SM-164 100 nM; 7 h, serum free media; read-out: Cell-base RIPK1 activity: phspho-RIPK1 (Ser166)
Procedure: as §1
Biological activity of the compounds of RIPK1 inhibitor was determined by measuring their ability to inhibitor TNFα induced phospho-RIPK1 (ser 166) levels, phospho-RIPK3 levels, phospho-MLKL levels in HMC3 cells. Cells were pretreated with Z-VAD-FMK […]. After 30 min, human TNFα 20 ng/ml, SM-164 100 nM and RIPK1 inhibitor (0.1, 1, 10 nM) were treated for 7 h under serum free media. Cells were lysed with cold lysis buffer containing 25 mM HEPES pH 7.6, […] NaCl, 1% NP40, 1% sodium deoxycholate, 0.1% SDS, and protease inhibitor mixture (Bimake, Houston, USA) using sonicators. The cells were centrifuged at 15,000 rpm, 4° C. for 5 min. After protein concentration of the lysates (supernatants) was quantified using BCA assay (Thermo Fisher Scientific, Waltham, USA), lysates were mixed with LDS sample buffer and heating at […] for 10 min. (Invitrogen, California, USA). […] The membranes are placed in an image analyzer (Imagequant, LAS 500, GE Healthcare), connected to a computer which allows the image generation (software Image reader LAS 500).

Row | SMILES | IC50 [1] [nM] | IC50 [2] [nM]
1 | CN1C(=O)[C@@H](NC(=O)n2cc(Cc3cccc(F)c3)cn2)COc2ccc(OCC(=O)N3CCC(O)CC3)cc21 [Example 40, (S)-4-(3-fluorobenzyl)-N-(7-(2-(4-hydroxypiperidin-1-yl)-2-oxoethoxy)-5-methyl-4-oxo-2,3,4,5-tetrahydrobenzo[b][1,4]oxazepin-3-yl)-1H-pyrazole-1-carboxamide] | < 10 | < 10
2 | CN1C(=O)[C@@H](NC(=O)n2cc(Cc3cccc(F)c3)cn2)COc2ccc(OCc3nccn3C)cc21 [Example 63, (S)-4-(3-fluorobenzyl)-N-(5-methyl-7-((1-methyl-1H-imidazol-2-yl)methoxy)-4-oxo-2,3,4,5-tetrahydrobenzo[b][1,4]oxazepin-3-yl)-1H-pyrazole-1-carboxamide] | < 10 | < 10
3 | CCN(CC(C)(C)O)C(=O)COc1ccc2c(c1)N(C)C(=O)[C@@H](NC(=O)n1cc(Cc3cccc(F)c3)cn1)CO2 [Example 53, (S)—N-(7-(2-(ethyl(2-hydroxy-2-methylpropyl)amino)-2-oxoethoxy)-5-methyl-4-oxo-2,3,4,5-tetrahydrobenzo[b][1,4]oxazepin-3-yl)-4-(3-fluorobenzyl)-1H-pyrazole-1-carboxamide] | < 10 | < 10
4 | CN1C(=O)[C@@H](NC(=O)n2cc(Cc3cccc(F)c3)cn2)COc2ccc(OCc3ccccc3)cc21 [Example 56, (S)—N-(7-(benzyloxy)-5-methyl-4-oxo-2,3,4,5-tetrahydrobenzo[b][1,4]oxazepin-3-yl)-4-(3-fluorobenzyl)-1H-pyrazole-1-carboxamide] | < 10 | < 10
5 | CN1C(=O)[C@@H](NC(=O)n2cc(Cc3cccc(F)c3)cn2)COc2ccc(OCCOCCO)cc21 [Example 19, (S)-4-(3-fluorobenzyl)-N-(7-(2-(2-hydroxyethoxy)ethoxy)-5-methyl-4-oxo-2,3,4,5-tetrahydrobenzo[b][1,4]oxazepin-3-yl)-1H-pyrazole-1-carboxamide] | < 10 | < 10
6 | Cc1noc(C)c1COc1ccc2c(c1)N(C)C(=O)[C@@H](NC(=O)n1cc(Cc3cccc(F)c3)cn1)CO2 [Example 67, (S)—N-(7-((3,5-dimethylisoxazol-4-yl)methoxy)-5-methyl-4-oxo-2,3,4,5-tetrahydrobenzo[b][1,4]oxazepin-3-yl)-4-(3-fluorobenzyl)-1H-pyrazole-1-carboxamide] | < 10 | < 10
7 | CN1C(=O)[C@@H](NC(=O)n2cc(Cc3cccc(F)c3)cn2)COc2ccc(OCC(=O)n3cc(O[Si](C)(C)C(C)(C)C)cn3)cc21 [Example 54, (S)—N-(7-(2-(4-((tert-butyldimethylsilyl)oxy)-1H-pyrazol-1-yl)-2-oxoethoxy)-5-methyl-4-oxo-2,3,4,5-tetrahydrobenzo[b][1,4]oxazepin-3-yl)-4-(3-fluorobenzyl)-1H-pyrazole-1-carboxamide] | 10 to 50 | 10 to 50
8 | CN1C(=O)[C@@H](NC(=O)n2cc(Cc3cccc(F)c3)cn2)COc2ccc(C(=O)N3CCC(C)(O)CC3)cc21 [Example 5, (S)-4-(3-fluorobenzyl)-N-(7-(4-hydroxy-4-methylpiperidine-1-carbonyl)-5-methyl-4-oxo-2,3,4,5-tetrahydrobenzo[b][1,4]oxazepin-3-yl)-1H-pyrazole-1-carboxamide] | < 10 | < 10
9 | CN1C(=O)[C@@H](NC(=O)n2cc(Cc3cccc(F)c3)cn2)COc2ccc(OCC#CC3(O)CCC3)cc21 [Example 24, (S)-4-(3-fluorobenzyl)-N-(7-((3-(1-hydroxycyclobutyl)prop-2-yn-1-yl)oxy)-5-methyl-4-oxo-2,3,4,5-tetrahydrobenzo[b][1,4]oxazepin-3-yl)-1H-pyrazole-1-carboxamide] | < 10 | < 10
10 | CN1C(=O)[C@@H](NC(=O)n2cc(Cc3cccc(F)c3)cn2)COc2ccc(OCc3cnc(Cl)nc3)cc21 [Example 62, (S)—N-(7-((2-chloropyrimidin-5-yl)methoxy)-5-methyl-4-oxo-2,3,4,5-tetrahydrobenzo[b][1,4]oxazepin-3-yl)-4-(3-fluorobenzyl)-1H-pyrazole-1-carboxamide] | < 10 | < 10
11 | CN1C(=O)[C@@H](NC(=O)n2cc(Cc3cccc(F)c3)cn2)COc2ccc(OCCCC3(O)CCC3)cc21 [Example 28, (S)-4-(3-fluorobenzyl)-N-(7-(3-(1-hydroxycyclobutyl)propoxy)-5-methyl-4-oxo-2,3,4,5-tetrahydrobenzo[b][1,4]oxazepin-3-yl)-1H-pyrazole-1-carboxamide] | < 10 | < 10
12 | CN1C(=O)[C@@H](NC(=O)n2cc(Cc3cccc(F)c3)cn2)COc2ccc(OCC(O)c3cccnc3)cc21 (stereo partly drawn) [Example 70, 4-(3-fluorobenzyl)-N-((3S)-7-(2-hydroxy-2-(pyridin-3-yl)ethoxy)-5-methyl-4-oxo-2,3,4,5-tetrahydrobenzo[b][1,4]oxazepin-3-yl)-1H-pyrazole-1-carboxamide] | < 10 | < 10
13 | COc1cc(COc2ccc3c(c2)N(C)C(=O)[C@@H](NC(=O)n2cc(Cc4cccc(F)c4)cn2)CO3)ccn1 [Example 61, (S)-4-(3-fluorobenzyl)-N-(7-((2-methoxypyridin-4-yl)methoxy)-5-methyl-4-oxo-2,3,4,5-tetrahydrobenzo[b][1,4]oxazepin-3-yl)-1H-pyrazole-1-carboxamide] | < 10 | < 10
14 | CN1C(=O)[C@@H](NC(=O)n2cc(Cc3cccc(F)c3)cn2)COc2ccc(OCC#Cc3cccnc3)cc21 [Example 25, (S)-4-(3-fluorobenzyl)-N-(5-methyl-4-oxo-7-((3-(pyridin-3-yl)prop-2-yn-1-yl)oxy)-2,3,4,5-tetrahydrobenzo[b][1,4]oxazepin-3-yl)-1H-pyrazole-1-carboxamide] | < 10 | < 10
15 | CN1C(=O)[C@@H](NC(=O)n2cc(Cc3cccc(F)c3)cn2)COc2ccc(OCC(=O)N3CCC(F)(F)CC3)cc21 [Example 38, (S)—N-(7-(2-(4,4-difluoropiperidin-1-yl)-2-oxoethoxy)-5-methyl-4-oxo-2,3,4,5-tetrahydrobenzo[b][1,4]oxazepin-3-yl)-4-(3-fluorobenzyl)-1H-pyrazole-1-carboxamide] | < 10 | < 10
16 | CN1C(=O)[C@@H](NC(=O)n2cc(Cc3cccc(F)c3)cn2)COc2ccc(OCC(=O)N3CCCCC3)cc21 [Example 36, (S)-4-(3-fluorobenzyl)-N-(5-methyl-4-oxo-7-(2-oxo-2-(piperidin-1-yl)ethoxy)-2,3,4,5-tetrahydrobenzo[b][1,4]oxazepin-3-yl)-1H-pyrazole-1-carboxamide] | < 10 | < 10
17 | CN1C(=O)[C@@H](NC(=O)n2cc(Cc3cccc(F)c3)cn2)COc2ccc(OCC(=O)N3CC[C@@H](O)C3)cc21 [Example 47, 4-(3-fluorobenzyl)-N—((S)-7-(2-((R)-3-hydroxypyrrolidin-1-yl)-2-oxoethoxy)-5-methyl-4-oxo-2,3,4,5-tetrahydrobenzo[b][1,4]oxazepin-3-yl)-1H-pyrazole-1-carboxamide] | < 10 | < 10

From patent US20240083892A1 (BISICHEM CO., LTD., priority 2021, published 2024)
